Common to all, as to type: cell-based, human
The test system of test [1] is cap-dependent translation. In words: Cap-dependent translation bicistronic luciferase reporter assay in HCT116 cells. The settings on record: 12 h.
Another test deals with S6 phosphorylation. Briefly: S6 phosphorylation in HCT116 cells (Western blot). The following applies: HCT116, 12 h; 2 μM FB or UCF76-A, 100 nM rapamycin, 0.5 μM AZD8055. How it is done: (§1) HCT116 cells were treated with 1 μM MK2206 and 100 nM PD0325901 alone and in combination, 100 nM rapamycin, 0.5 μM AZD8055, 2 μM UCF76-A or 2 μM FB for 12 h followed by Western blot analysis for the indicated proteins.
(§2) Cells were lysed in NP-40 lysis buffer (50 mM Tris-HCl, pH 7.5, 150 mM NaCl, 1 mM EDTA, 1% NP-40, 10% glycerol, protease and phosphatase inhibitor cocktail). Western blot analysis were performed using equivalent total protein loadings as described previously. For immunoprecipitation, the cell lysates were incubated with the indicated antibody overnight followed by incubation with a 50% slurry of protein G sepharose beads for 3 h at 4° C. The beads were washed three times with the lysis buffer, and the immunoprecipitated protein complexes were resuspended in 2× Laemmli sample buffer followed by western blot analysis.
A general note: Immunoblotting shows a protein as a band on a membrane.

Another test has as its system AKT phosphorylation. Briefly: AKT phosphorylation in HCT116 cells (Western blot). The following applies: HCT116, 12 h; 2 μM FB or UCF76-A, 0.5 μM AZD8055, 1 μM MK2206. How it is done:
as §1, §2

The subject of test [2] is 4E-BP1 phosphorylation. Briefly: 4E-BP1 phosphorylation in DLD-1 colon cancer cells (Western blot). The following applies: DLD-1 cells, 2 μM, 12 hours. As for the experimental part: (§3) Cells were treated with 100 nM rapamycin, 0.5 μM AZD8055, 2 μM FB, 2 μM UCF76-A or DMSO control for 12 hours followed by Western blot analysis for the indicated proteins.
as §2

Test [3] deals with 4E-BP1 phosphorylation. In words: 4E-BP1 phosphorylation in MDA-MB-231 breast cancer cells (Western blot). The settings on record: MDA-MB-231 cells, 2 μM, 12 hours. How it is done: as §3, §2

As for `CCCC1OC2CC(=O)OC2C2=C1C(=O)c1c(O)cccc1C2=O` (centres unmarked) [FB, frenolicin B], the “inhibition of cap-dependent translation” value in test [1] is “effectively inhibit”. The “inhibition of S6 phosphorylation” value in the test with S6 phosphorylation is on record as “did not inhibit”. Besides, in the test with AKT phosphorylation, the “inhibition of AKT phosphorylation” value is given as “did not inhibit”. The “inhibition of 4E-BP1 phosphorylation” value with 4E-BP1 phosphorylation [2] and with 4E-BP1 phosphorylation [3] was “selectively inhibit” each time.
